Earlier results as cited in patent US20030013692A1, “Methods of treating neurological disorders” (priority 2001, published 2003).

Details: nimodipine treated subarachnoid hemorrhage (SAH) patients

## COCCOC(=O)C1=C(C)NC(C)=C(C(=O)OC(C)C)C1c1cccc([N+](=O)[O-])c1 (stereo not shown) [nimodipine, Isopropyl (2-methoxyethyl) 1,4-dihydro-2,6-dimethyl-4-(3-nitrophenyl)-3,5-pyridine-dicarboxylate]
  concentration detected in the cerebrospinal fluid: ≤ 12.5 ng/mL
